In patent US20080207705A1, “Heteroaryl-Imidazole Derivatives as Cannabinoid CB1 Receptor Antagonists” (Green Cross Corporation, priority 2007, published 2008):

Target: T1, rat CB-1 receptor (Rattus norvegicus, UniProt P20272)
T1 construct: The tissue obtained from the brain of SD rats was homogenized; from tissue; host or cells: brain of SD rats (membrane pellet of homogenate)
Experiment: rat CB-1 receptor binding protocol with [3H]CP-55940
Settings: not given

T1 sequence (P20272 whole entry): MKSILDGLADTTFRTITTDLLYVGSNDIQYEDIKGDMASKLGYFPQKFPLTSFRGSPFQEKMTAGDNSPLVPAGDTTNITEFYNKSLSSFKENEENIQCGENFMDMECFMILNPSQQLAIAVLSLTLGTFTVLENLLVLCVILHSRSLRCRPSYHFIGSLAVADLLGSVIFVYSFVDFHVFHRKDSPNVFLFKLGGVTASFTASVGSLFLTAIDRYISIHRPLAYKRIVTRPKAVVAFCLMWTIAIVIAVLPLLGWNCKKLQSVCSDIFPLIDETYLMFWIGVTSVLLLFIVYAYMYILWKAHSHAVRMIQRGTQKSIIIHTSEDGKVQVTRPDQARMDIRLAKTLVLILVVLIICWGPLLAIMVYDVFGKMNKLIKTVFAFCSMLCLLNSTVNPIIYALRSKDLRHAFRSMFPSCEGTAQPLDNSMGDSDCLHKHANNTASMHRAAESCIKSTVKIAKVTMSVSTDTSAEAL

Going from `Cc1c(-c2nnc(C(C)C)o2)nc(-c2ccc(Cl)cc2Cl)n1-c1ccc(Cl)cc1` [Example 9, 2-(1-(4-Chlorophenyl)-2-(2,4-dichlorophenyl)-5-methyl-1H-imidazol-4-yl)-5-isopropyl-1,3,4-oxadiazole] to `FC(F)(F)C1(c2nnc(-c3nc(-c4ccc(Cl)cc4Cl)n(-c4ccc(Br)cc4)c3Cn3cncn3)o2)CCC1` [Example 76, 2-(5-((1H-1,2,4-Triazol-1-yl)methyl)-1-(4-bromophenyl)-2-(2,4-dichlorophenyl)-1H-imidazol-4-yl)-5-(1-(trifluoromethyl)cyclobutyl)-1,3,4-oxadiazole], the IC50 falls from 25.8 nM to 3.95 nM (6.5-fold). The second is the more potent here.

Molecule `CCc1c(-c2nnc(C3(C(F)(F)F)CCC3)s2)nc(-c2ccccc2Cl)n1-c1ccc(Br)cc1` [Example 147, 2-(1-(4-Bromophenyl)-2-(2-chlorophenyl)-5-ethyl-1H-imidazol-4-yl)-5-(1-(trifluoromethyl)cyclobutyl)-1,3,4-thiadiazole] has an IC50 of 5.33 nM.

Same assay, conditions: [3H]CP-55940, brain tissue of SD rats, 30 °C for 60 min; read-out: IC50

First: CCc1c(-c2nc(C(C)(C)C)co2)nc(-c2ccc(Cl)cc2Cl)n1-c1ccc(Br)cc1 [Example 191, 2-(1-(4-Bromophenyl)-2-(2,4-dichlorophenyl)-5-ethyl-1H-imidazol-4-yl)-4-tert-butyloxazole]
Second: CCc1c(-c2nc(C(C)(C)C)co2)nc(-c2ccc(Cl)cc2Cl)n1-c1ccc(Cl)cc1 [Example 190, 4-tert-Butyl-2-(1-(4-chlorophenyl)-2-(2,4-dichlorophenyl)-5-ethyl-1H-imidazol-4-yl)oxazole]
The IC50 of the first is 4-fold lower: 30 nM for the first, 119 nM for the second.

Compared with `CCc1c(-c2nnc(C3CCCCC3)o2)nc(-c2ccc(Cl)cc2Cl)n1-c1ccc(Cl)cc1` [Example 12, 2-(1-(4-Chlorophenyl)-2-(2,4-dichlorophenyl)-5-ethyl-1H-imidazol-4-yl)-5-cyclohexyl-1,3,4-oxadiazole], `CCc1c(-c2nnc(C3CCCC3)o2)nc(-c2ccc(Cl)cc2Cl)n1-c1ccc(Cl)cc1` [Example 13, 2-(1-(4-Chlorophenyl)-2-(2,4-dichlorophenyl)-5-ethyl-1H-imidazol-4-yl)-5-cyclopentyl-1,3,4-oxadiazole] is 1.9-fold lower in IC50: 48.4 nM for the first, 25.8 nM for the second.

First: CCCc1c(-c2nnc(C3CCC3)o2)nc(-c2ccc(Cl)cc2Cl)n1-c1ccc(Br)cc1 [Example 32, 2-(1-(4-Bromophenyl)-2-(2,4-dichlorophenyl)-5-propyl-1H-imidazol-4-yl)-5-cyclobutyl-1,3,4-oxadiazole]
Second: CCCc1c(-c2nnc(C3CCCCC3)o2)nc(-c2ccc(Cl)cc2Cl)n1-c1ccc(Br)cc1 [Example 30, 2-(1-(4-Bromophenyl)-2-(2,4-dichlorophenyl)-5-propyl-1H-imidazol-4-yl)-5-cyclohexyl-1,3,4-oxadiazole]
The IC50 of the first is 5.7-fold lower: 68.9 nM for the first, 392 nM for the second. The first is the more potent here.

Compared with `Cc1c(-c2nnc(C(C)(C)C)o2)nc(-c2ccc(Cl)cc2Cl)n1-c1ccc(Br)cc1` [Example 20, 2-(1-(4-Bromophenyl)-2-(2,4-dichlorophenyl)-5-methyl-1H-imidazol-4-yl)-5-tert-butyl-1,3,4-oxadiazole], `Cc1c(-c2nnc(C(C)(C)C)o2)nc(-c2ccc(Cl)cc2Cl)n1-c1ccc(Cl)cc1` [Example 1, 2-tert-Butyl-5-(1-(4-chlorophenyl)-2-(2,4-dichlorophenyl)-5-methyl-1H-imidazol-4-yl)-1,3,4-oxadiazole] is 2.3-fold higher in IC50: 5.81 nM for the first, 13.2 nM for the second. The first is the more potent here.

First: CC(C)c1c(-c2nnc(C3(c4ccccc4)CC3)o2)nc(-c2ccc(Cl)cc2Cl)n1-c1ccc(Br)cc1 [Example 26, 2-(1-(4-Bromophenyl)-2-(2,4-dichlorophenyl)-5-isopropyl-1H-imidazol-4-yl)-5-(1-phenylcyclopropyl)-1,3,4-oxadiazole]
Second: CCCc1c(-c2nnc(C3(c4ccccc4)CC3)o2)nc(-c2ccc(Cl)cc2Cl)n1-c1ccc(Br)cc1 [Example 31, 2-(1-(4-Bromophenyl)-2-(2,4-dichlorophenyl)-5-propyl-1H-imidazol-4-yl)-5-(1-phenylcyclopropyl)-1,3,4-oxadiazole]
The IC50 of the first is 4.5-fold lower: 10.3 nM for the first, 46.1 nM for the second.

First: CCCc1c(-c2nnc(C3(c4ccccc4)CC3)s2)nc(-c2ccc(Cl)cc2Cl)n1-c1ccc(Br)cc1 [Example 121, 2-(1-(4-Bromophenyl)-2-(2,4-dichlorophenyl)-5-propyl-1H-imidazol-4-yl)-5-(1-phenylcyclopropyl)-1,3,4-thiadiazole]
Second: CCc1c(-c2nnc(C3(c4ccc(C)cc4)CC3)s2)nc(-c2ccc(Cl)cc2Cl)n1-c1ccc(Br)cc1 [Example 133, 2-(1-(4-Bromophenyl)-2-(2,4-dichlorophenyl)-5-ethyl-1H-imidazol-4-yl)-5-(1-p-tolylcyclopropyl)-1,3,4-thiadiazole]
The IC50 of the first is 2.3-fold higher: 13.2 nM for the first, 5.72 nM for the second. The second is the more potent here.

Going from `CCCc1c(-c2nnc(C3(c4ccc(Cl)cc4)CCC3)o2)nc(-c2ccc(Cl)cc2Cl)n1-c1ccc(Br)cc1` [Example 34, 2-(1-(4-Bromophenyl)-2-(2,4-dichlorophenyl)-5-propyl-1H-imidazol-4-yl)-5-(1-(4-chlorophenyl)cyclobutyl)-1,3,4-oxadiazole] to `Cc1c(-c2nnc(C3(c4ccc(Cl)cc4)CC3)s2)nc(-c2ccc(Cl)cc2Cl)n1-c1ccc(Br)cc1` [Example 138, 2-(1-(4-Bromophenyl)-2-(2,4-dichlorophenyl)-5-methyl-1H-imidazol-4-yl)-5-(1-(4-chlorophenyl)cyclopropyl)-1,3,4-thiadiazole], the IC50 rises from 9.05 nM to 18.5 nM (2-fold).

`Cc1c(-c2nnc(C3(C(F)(F)F)CC3)s2)nc(-c2ccccc2Cl)n1-c1ccc(Br)cc1` [Example 142, 2-(1-(4-Bromophenyl)-2-(2-chlorophenyl)-5-methyl-1H-imidazol-4-yl)-5-(1-(trifluoromethyl)cyclopropyl)-1,3,4-thiadiazole] and `CCc1c(-c2nnc(C3(C(F)(F)F)CC3)s2)nc(-c2ccccc2Cl)n1-c1ccc(Br)cc1` [Example 146, 2-(1-(4-Bromophenyl)-2-(2-chlorophenyl)-5-ethyl-1H-imidazol-4-yl)-5-(1-(trifluoromethyl)cyclopropyl)-1,3,4-thiadiazole] are within 1.5-fold of each other in IC50: 12.3 nM for the first, 11.5 nM for the second.

`CCc1c(-c2nnc(C3CCC3)o2)nc(-c2ccc(Cl)cc2Cl)n1-c1ccc(Cl)cc1` [Example 14, 2-(1-(4-Chlorophenyl)-2-(2,4-dichlorophenyl)-5-ethyl-1H-imidazol-4-yl)-5-cyclobutyl-1,3,4-oxadiazole] and `Cc1c(-c2nnc(C3CCCCCC3)o2)nc(-c2ccc(Cl)cc2Cl)n1-c1ccc(Cl)cc1` [Example 5, 2-(1-(4-Chlorophenyl)-2-(2,4-dichlorophenyl)-5-methyl-1H-imidazol-4-yl)-5-cycloheptyl-1,3,4-oxadiazole] are within 1.5-fold of each other in IC50: 34.1 nM for the first, 27.6 nM for the second.

`CCCc1c(-c2nnc(C3CCCCC3)s2)nc(-c2ccc(Cl)cc2Cl)n1-c1ccc(Br)cc1` [Example 120, 2-(1-(4-Bromophenyl)-2-(2,4-dichlorophenyl)-5-propyl-1H-imidazol-4-yl)-5-cyclohexyl-1,3,4-thiadiazole] and `CCCc1c(-c2nnc(C3CCCCC3)s2)nc(-c2ccc(Cl)cc2Cl)n1-c1ccc(Cl)cc1` [Example 129, 2-(1-(4-Chlorophenyl)-2-(2,4-dichlorophenyl)-5-propyl-1H-imidazol-4-yl)-5-cyclohexyl-1,3,4-thiadiazole] are within 1.5-fold of each other in IC50: 44.3 nM for the first, 51.5 nM for the second.

`CCc1sc(-c2nc(-c3ccc(Cl)cc3Cl)n(-c3ccc(Cl)cc3)c2C)nc1C` [Example 202, 2-(1-(4-Chlorophenyl)-2-(2,4-dichlorophenyl)-5-methyl-1H-imidazol-4-yl)-5-ethyl-4-methylthiazole] and `CCc1cnc(-c2nc(-c3ccc(Cl)cc3Cl)n(-c3ccc(Cl)cc3)c2C)s1` [Example 194, 2-(1-(4-Chlorophenyl)-2-(2,4-dichlorophenyl)-5-methyl-1H-imidazol-4-yl)-5-ethylthiazole] are within 1.5-fold of each other in IC50: 90.2 nM for the first, 70.2 nM for the second.

Going from `CCCC(C)c1nnc(-c2nc(-c3ccc(Cl)cc3Cl)n(-c3ccc(Cl)cc3)c2CC)s1` (stereo not drawn) [Example 106, 2-(1-(4-Chlorophenyl)-2-(2,4-dichlorophenyl)-5-ethyl-1H-imidazol-4-yl)-5-(pentan-2-yl)-1,3,4-thiadiazole] to `CCc1c(-c2nnc(C(C)(C)C)s2)nc(-c2ccc(Cl)cc2Cl)n1-c1ccc(Br)cc1` [Example 110, 2-(1-(4-Bromophenyl)-2-(2,4-dichlorophenyl)-5-ethyl-1H-imidazol-4-yl)-5-tert-butyl-1,3,4-thiadiazole], the IC50 falls from 12.9 nM to 1.91 nM (6.8-fold). The second is the more potent here.

First: CCc1cnc(-c2nc(-c3ccc(Cl)cc3Cl)n(-c3ccc(Cl)cc3)c2C)o1 [Example 181, 2-(1-(4-Chlorophenyl)-2-(2,4-dichlorophenyl)-5-methyl-1H-imidazol-4-yl)-5-ethyloxazole]
Second: CCC(CC)c1nnc(-c2nc(-c3ccc(Cl)cc3Cl)n(-c3ccc(Cl)cc3)c2C)o1 [Example 10, 2-(1-(4-Chlorophenyl)-2-(2,4-dichlorophenyl)-5-methyl-1H-imidazol-4-yl)-5-(pentan-3-yl)-1,3,4-oxadiazole]
The IC50 of the first is 3.8-fold higher: 84 nM for the first, 22.3 nM for the second. The second is the more potent here.

`FC(F)(F)C1(c2nnc(-c3nc(-c4ccc(Cl)cc4Cl)n(-c4ccc(Br)cc4)c3Cn3cncn3)o2)CC1` [Example 75, 2-(5-((1H-1,2,4-Triazol-1-yl)methyl)-1-(4-bromophenyl)-2-(2,4-dichlorophenyl)-1H-imidazol-4-yl)-5-(1-(trifluoromethyl)cyclopropyl)-1,3,4-oxadiazole] and `CC(C)(C)c1nnc(-c2nc(-c3ccc(Cl)cc3Cl)n(-c3ccc(Cl)cc3)c2Cn2cncn2)o1` [Example 87, 2-(5-((1H-1,2,4-Triazol-1-yl)methyl)-1-(4-chlorophenyl)-2-(2,4-dichlorophenyl)-1H-imidazol-4-yl)-5-tert-butyl-1,3,4-oxadiazole] are within 1.5-fold of each other in IC50: 8.77 nM for the first, 12 nM for the second.

Compared with `CC(C)c1c(-c2nnc(C(C)(C)C)s2)nc(-c2ccc(Cl)cc2Cl)n1-c1ccc(Br)cc1` [Example 114, 2-(1-(4-Bromophenyl)-2-(2,4-dichlorophenyl)-5-isopropyl-1H-imidazo-4-yl)-5-tert-butyl-1,3,4-thiadiazole], `Cc1c(-c2ncc(C3CCCCC3)s2)nc(-c2ccc(Cl)cc2Cl)n1-c1ccc(Cl)cc1` [Example 193, 2-(1-(4-Chlorophenyl)-2-(2,4-dichlorophenyl)-5-methyl-1H-imidazol-4-yl)-5-cyclohexylthiazole] is 11-fold higher in IC50: 6.49 nM for the first, 74.5 nM for the second. The first is the more potent here.
